Experiments:
Assay type in all cases: biochemical
[1] = molecular target: T1, human GST-DYRK1A (full length) (Homo sapiens, UniProt Q13627); test: GST-DYRK1A enzyme inhibition, ADP-Glo kinase assay; details: read-out: DYRK1 IC50
T1 construct: purified human GST-DYRK1A (full length, Thermo scientifics) enzyme; GST; purchased Thermo scientifics
In short: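 ADP-Glo luminescence quantified kinase activity after a 1 h, 25° C reaction of 10 ng full-length GST-tagged human DYRK1A, substrate and 10 uM ATP in Tris-HCl buffer pH 7.4 with MgCl2, BSA and DTT. Triplicate IC50 values (nM) calculated relative to untreated solvent control.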

human GST-CLK1 (129-end) = molecular target: T2, human GST-CLK1 (129-end) (Homo sapiens, UniProt P49759); test: GST-CLK1 enzyme inhibition, ADP-Glo kinase assay; details: ATP 10 uM
T2 construct: purified human GST-CLK1 (129-end, Signalchem) enzyme; GST; purchased Signalchem
In short: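 ADP formation was read by ADP-Glo luminescence after 1 h at 25° C with 3 ng human GST-CLK1 (129-end), substrate and 10 uM ATP in Tris pH 7.4 buffer containing MgCl2, BSA and DTT. Inhibition relative to untreated solvent control gave IC50 (nM), run in triplicate.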

LRRK2 = LRRK2 (Homo sapiens, UniProt Q5S007); test: LRRK2 enzyme inhibition, ADP-Glo kinase assay; set-up: purchased Invitrogen PR8604B
Experimental: In order to evaluate the inhibitory activity of the compounds according to the present invention on LRRK2, LRRK2 (G2019S), DYRK1, CLK1 and TTK kinases, the following experiment was performed.
Example compounds were reacted with the purified human LRRK2 (Invitrogen #PR8604B) enzyme to evaluate the enzyme inhibitory ability as follows. The reaction buffer was used as the composition of 40 mM Tris-HCl pH7.4, 20 mM MgCl2, 0.5 mg/ml BSA and 50 μM DTT, and the reaction of all test materials was performed on the reaction buffer. The compound was diluted with 10 mM DMSO stock in 12 steps by a serial dilution method, and the enzyme activity was measured at the final compound concentrations of 50, 10, 2, 0.4, 0.08, 0.016, 0.0032, 0.00064, 0.000128, 0.0000256, 0.00000512 and 0.000001024 μM. In the test, the human LRRK2 (25 ng) enzyme was reacted with the purified ATP (10 μM) and an enzyme substrate ([…]) at 25° C. for 2 hours, and then the enzyme activity was identified using the in vitro ADP-Glo™ kinase assay (promega). The enzyme activity reaction liquid, an ADP-Glo reaction liquid and an enzyme potency detection solution were reacted in a ratio of 2:2:1, and the degree of inhibition of enzyme activity was measured by Luminescence. The degree of inhibition of enzyme activity according to the treatment concentrations of the respective compounds was calculated based on the fluorescence of the enzyme activity of a solvent control group that was not treated with the compound, where the concentration of each compound to inhibit enzyme activity inhibition by 50% was determined as an IC50 (nM) value and obtained using Prism (Version 5.01, GraphPad) software.
In the table below, the following designations were used for the evaluation of enzyme inhibitory ability.

LRRK2 (G2019S) = LRRK2 (G2019S) (Homo sapiens, UniProt Q5S007, G2019S); test: LRRK2 G2019S enzyme inhibition, ADP-Glo kinase assay; set-up: purchased SignalChem L10-12GG
In short: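 Activity read as ADP-Glo luminescence, normalized to untreated solvent control, with IC50 (nM) fitted over 12 final compound levels (top 50 μM). Reaction: 2 h, 25° C, human LRRK2 G2019S 16 ng, ATP 25 μM, substrate 0.2 μg, in Tris-HCl pH 7.4 with MgCl2, BSA and DTT.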

T2 sequence (P49759 129-484 limits assumed): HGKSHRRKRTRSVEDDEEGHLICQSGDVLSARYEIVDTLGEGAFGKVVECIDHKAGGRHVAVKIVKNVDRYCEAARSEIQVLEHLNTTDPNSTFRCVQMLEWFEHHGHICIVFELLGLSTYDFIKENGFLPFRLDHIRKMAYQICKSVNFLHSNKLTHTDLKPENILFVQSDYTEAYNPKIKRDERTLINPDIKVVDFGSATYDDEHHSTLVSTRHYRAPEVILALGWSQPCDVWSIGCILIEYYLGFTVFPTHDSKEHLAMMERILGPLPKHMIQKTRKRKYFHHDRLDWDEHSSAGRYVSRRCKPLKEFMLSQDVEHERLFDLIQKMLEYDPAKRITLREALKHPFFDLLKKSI
Sequence of LRRK2 (G2019S) (Q5S007 970-2527 G2019S limits assumed): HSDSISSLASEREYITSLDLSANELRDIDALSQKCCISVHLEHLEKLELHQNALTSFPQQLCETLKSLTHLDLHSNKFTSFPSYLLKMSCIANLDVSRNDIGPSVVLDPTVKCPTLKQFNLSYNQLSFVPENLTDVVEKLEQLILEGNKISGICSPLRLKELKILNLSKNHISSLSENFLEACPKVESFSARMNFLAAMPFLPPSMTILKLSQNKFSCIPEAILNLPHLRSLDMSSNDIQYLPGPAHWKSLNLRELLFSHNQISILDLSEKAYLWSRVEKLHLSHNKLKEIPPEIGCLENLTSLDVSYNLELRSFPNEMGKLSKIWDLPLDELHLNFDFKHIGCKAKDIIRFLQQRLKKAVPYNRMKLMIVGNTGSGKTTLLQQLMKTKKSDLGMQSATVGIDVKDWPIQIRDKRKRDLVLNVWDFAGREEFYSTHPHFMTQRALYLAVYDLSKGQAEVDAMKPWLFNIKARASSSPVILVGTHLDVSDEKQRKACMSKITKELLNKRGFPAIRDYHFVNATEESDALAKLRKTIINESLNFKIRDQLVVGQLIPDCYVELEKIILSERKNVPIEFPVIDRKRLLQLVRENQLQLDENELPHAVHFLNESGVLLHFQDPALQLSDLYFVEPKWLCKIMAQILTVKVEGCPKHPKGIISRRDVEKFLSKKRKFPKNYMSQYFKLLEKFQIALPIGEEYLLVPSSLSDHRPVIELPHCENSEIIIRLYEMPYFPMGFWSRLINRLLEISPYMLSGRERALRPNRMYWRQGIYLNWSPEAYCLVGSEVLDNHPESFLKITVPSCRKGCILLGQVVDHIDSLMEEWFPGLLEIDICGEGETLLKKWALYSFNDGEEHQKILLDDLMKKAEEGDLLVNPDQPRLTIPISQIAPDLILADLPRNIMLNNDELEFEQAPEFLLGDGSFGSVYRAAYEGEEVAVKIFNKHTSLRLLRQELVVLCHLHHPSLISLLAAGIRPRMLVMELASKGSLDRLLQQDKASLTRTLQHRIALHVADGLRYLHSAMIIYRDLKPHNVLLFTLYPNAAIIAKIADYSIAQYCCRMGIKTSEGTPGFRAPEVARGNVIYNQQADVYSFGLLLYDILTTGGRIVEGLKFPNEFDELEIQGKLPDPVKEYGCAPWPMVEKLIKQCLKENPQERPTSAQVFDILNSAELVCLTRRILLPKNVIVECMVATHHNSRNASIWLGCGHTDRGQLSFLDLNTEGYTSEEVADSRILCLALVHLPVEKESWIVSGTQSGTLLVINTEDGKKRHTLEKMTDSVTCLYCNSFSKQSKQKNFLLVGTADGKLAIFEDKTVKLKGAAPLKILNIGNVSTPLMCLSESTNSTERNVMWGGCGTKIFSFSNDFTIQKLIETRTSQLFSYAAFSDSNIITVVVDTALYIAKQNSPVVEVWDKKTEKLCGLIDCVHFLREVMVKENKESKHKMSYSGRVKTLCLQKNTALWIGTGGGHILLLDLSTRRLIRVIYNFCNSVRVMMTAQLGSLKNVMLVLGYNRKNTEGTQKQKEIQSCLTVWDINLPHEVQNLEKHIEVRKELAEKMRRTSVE
Sequence of LRRK2 (Q5S007 970-2527 limits assumed): as the sequence (Q5S007 970-2527 G2019S limits assumed) above, with S1050G counted along it

Compound | IC50 [1] [nM] | IC50 (human GST-CLK1 (129-end)) [nM] | IC50 (LRRK2) [nM] | IC50 (LRRK2 (G2019S)) [nM]
CNc1cc(Nc2ccc(C(=O)N3CCOCC3)c3c2OCC3)nc2[nH]cc(C(F)(F)F)c12 [Example 52, (7-((4-(methylamino)-3-(trifluoromethyl)-1H-pyrrolo[2,3-b]pyridin-6-yl)amino)-2,3-dihydrobenzofuran-4-yl)(morpholino) methanone] | < 100 | < 100 | < 100 | < 100
CNc1cc(Nc2ccc(S(C)(=O)=O)cc2OC)nc2[nH]cc(C#N)c12 [Example 123] | 301 to 1000 | 301 to 1000 | < 100 | < 100
COc1cc(S(=O)(=O)N2CCOCC2)ccc1Nc1cc(NC2CCC2)c2c(Cl)c[nH]c2n1 [Example 69, 3-chloro-N^4-cyclobutyl-N^6-(2-methoxy-4-(morpholinosulfonyl)phenyl)-1H-pyrrolo[2,3-b]pyridine-4,6-diamine] | 301 to 1000 | 301 to 1000 | 301 to 1000 | 301 to 1000
COc1cc(S(C)(=O)=O)ccc1Nc1cc(NC2CCCC2)c2c(C#N)c[nH]c2n1 [Example 121, 4-(cyclopentylamino)-6-((2-methoxy-4-(methylsulfonyl)phenyl)amino)-1H-pyrrolo[2,3-b]pyridine-3-carbonitrile] | 301 to 1000 | 301 to 1000 | < 100 | 301 to 1000
CC(C)CNc1cc(Nc2ccc(C(=O)N3CCOCC3)c3c2OCCO3)nc2[nH]cc(C(F)(F)F)c12 [Example 156, (8-((4-(isobutylamino)-3-(trifluoromethyl)-1H-pyrrolo[2,3-b]pyridin-6-yl)amino)-2,3-dihydrobenzo[b] [1,4]dioxin-5-yl)(morpholino) methanone] | 301 to 1000 | 301 to 1000 | < 100 | 301 to 1000
O=C(c1ccc(Nc2cc(NC3CC3)c3c(C(F)(F)F)c[nH]c3n2)c2c1CCO2)N1CCOCC1 [Example 53, (7-((4-(cyclopropylamino)-3-(trifluoromethyl)-1H-pyrrolo[2,3-b]pyridin-6-yl)amino)-2,3-dihydrobenzofuran-4-yl)(morpholino) methanone] | < 100 | < 100 | < 100 | < 100
CNc1cc(Nc2ccc(C(=O)N3CCOCC3)c3c2OCCO3)nc2[nH]cc(C#N)c12 [Example 106, 4-(methylamino)-6-((8-(morpholine-4-carbonyl)-2,3-dihydrobenzo[b] [1,4]dioxin-5-yl)amino)-1H-pyrrolo[2,3-b]pyridine-3-carbonitrile] | 301 to 1000 | 301 to 1000 | < 100 | < 100
COc1cc(S(C)(=O)=O)ccc1Nc1cc(NC(C)C)c2cc[nH]c2n1 [Example 28, N^4-isopropyl-N^6-(2-methoxy-4-(methylsulfonyl)phenyl)-1H-pyrrolo[2,3-b]pyridine-4,6-diamine] | 301 to 1000 | 301 to 1000 | 101 to 300 | 301 to 1000
COc1cc(S(C)(=O)=O)ccc1Nc1cc(NC2CCC2)c2c(Cl)c[nH]c2n1 [Example 85, 3-chloro-N^4-cyclobutyl-N^6-(2-methoxy-4-(methylsulfonyl)phenyl)-1H-pyrrolo[2,3-b]pyridine-4,6-diamine] | 101 to 300 | 301 to 1000 | 301 to 1000 | 301 to 1000
COCCNc1cc(Nc2ccc(C(=O)N3CCC(N4CCOCC4)CC3)c3c2OCCO3)nc2[nH]cc(C#N)c12 [Example 118, 4-((2-methoxyethyl)amino)-6-((8-(4-morpholinopiperidine-1-carbonyl)-2,3-dihydrobenzo [b] [1,4]dioxin-5-yl)amino)-1H-pyrrolo[2,3-b]pyridine-3-carbonitrile] | 301 to 1000 | < 100 | < 100 | < 100
CCNc1cc(Nc2ccc(P(C)(=O)N3CCC(N4CCOCC4)CC3)cc2OC)nc2[nH]cc(C(F)(F)F)c12 (centres unmarked) [Example 208, (4-((4-(ethylamino)-3-(trifluoromethyl)-1H-pyrrolo[2,3-b]pyridin-6-yl)amino)-3-methoxyphenyl) (methyl)(4-morpholinopiperidin-1-yl)phosphine oxide] | 101 to 300 | < 100 | < 100 | < 100
CNc1cc(Nc2ccc(S(=O)(=O)N3CCOCC3)cc2OC)nc2[nH]cc(C(F)(F)F)c12 [Example 177, N^6-(2-methoxy-4-(morpholinosulfonyl)phenyl)-N^4-methyl-3-(trifluoromethyl)-1H-pyrrolo[2,3-b]pyridine-4,6-diamine] | 301 to 1000 | 301 to 1000 | 301 to 1000 | 301 to 1000
CCNc1cc(Nc2ccc(S(C)(=O)=O)cc2OC)nc2[nH]cc(C#N)c12 [Example 124, 4-(ethylamino)-6-((2-methoxy-4-(methylsulfonyl)phenyl)amino)-1H-pyrrolo[2,3-b]pyridine-3-carbonitrile] | 301 to 1000 | 301 to 1000 | < 100 | 101 to 300
CCCNc1cc(Nc2ccc(C(=O)N3CCOCC3)c3c2OCCO3)nc2[nH]cc(C#N)c12 [Example 108, 6-((8-(morpholine-4-carbonyl)-2,3-dihydrobenzo[b] [1,4]dioxin-5-yl)amino)-4-(propylamino)-1H-pyrrolo[2,3-b]pyridine-3-carbonitrile] | 301 to 1000 | 301 to 1000 | < 100 | < 100
COc1cc(S(=O)(=O)N2CCOCC2)ccc1Nc1cc(NC2CCCCC2)c2c(Cl)c[nH]c2n1 [Example 70, 3-chloro-N^4-cyclohexyl-N^6-(2-methoxy-4-(morpholinosulfonyl)phenyl)-1H-pyrrolo[2,3-b]pyridine-4,6-diamine] | 301 to 1000 | 301 to 1000 | 301 to 1000 | 301 to 1000
CCNc1cc(Nc2ccc(C(=O)N3CCC(N4CCOCC4)CC3)c3c2OCCO3)nc2[nH]cc(C(F)(F)F)c12 [Example 161, (8-((4-(ethylamino)-3-(trifluoromethyl)-1H-pyrrolo[2,3-b]pyridin-6-yl)amino)-2,3-dihydrobenzo[b] [1,4]dioxin-5-yl)(4-morpholinopiperidin-1-yl)methanone] | 101 to 300 | < 100 | < 100 | < 100
COc1cc(S(C)(=O)=O)ccc1Nc1cc(NC2CC2)c2c(C#N)c[nH]c2n1 [Example 122, 4-(cyclopropylamino)-6-((2-methoxy-4-(methylsulfonyl)phenyl)amino)-1H-pyrrolo[2,3-b]pyridine-3-carbonitrile] | 301 to 1000 | 301 to 1000 | < 100 | 101 to 300
CCCNc1cc(Nc2ccc(S(C)(=O)=O)cc2OC)nc2[nH]cc(C#N)c12 [Example 125, 6-((2-methoxy-4-(methylsulfonyl)phenyl)amino)-4-(propylamino)-1H-pyrrolo[2,3-b]pyridine-3-carbonitrile] | 301 to 1000 | 301 to 1000 | < 100 | 101 to 300
N#Cc1c[nH]c2nc(Nc3ccc(C(=O)N4CCC(N5CCOCC5)CC4)c4c3OCCO4)cc(NC3CC3)c12 [Example 116, 4-(cyclopropylamino)-6-((8-(4-morpholinopiperidine-1-carbonyl)-2,3-dihydrobenzo [b] [1,4]dioxin-5-yl)amino)-1H-pyrrolo[2,3-b]pyridine-3-carbonitrile] | 301 to 1000 | 101 to 300 | < 100 | < 100
COCCNc1cc(Nc2ccc(S(C)(=O)=O)cc2OC)nc2[nH]cc(C#N)c12 [Example 126, 6-((2-methoxy-4-(methylsulfonyl)phenyl)amino)-4-((2-methoxyethyl)amino)-1H-pyrrolo[2,3-b]pyridine-3-carbonitrile] | 301 to 1000 | 301 to 1000 | < 100 | < 100

— US12240844B2 (Voronoi, Inc., priority 2019, dated 2025)
